In patent US10406335B2, “Drug delivery systems and methods for treatment of prostate” (TARIS Biomedical LLC, priority 2012, dated 2019):

Key:
[1] = 14C gemcitabine tissue uptake after intra-urinary bladder perfusion or IV bolus in rats; type: in vivo, male Sprague Dawley rats
Description: The 6- and 24-hour continuous perfusions perfused 6.9 and 26.6 mg, respectively, of gemcitabine into the bladder. The single IV bolus included 5.0 mg of gemcitabine.
Blood (FIG. 8), urine, and tissue samples (e.g., bladder, prostate) (FIGS. 7 and 9) were collected and analyzed for gemcitabine content. The results are illustrated in FIGS. 7-9.

[2] = system: prostate cancer; details: Phase 2 clinical studies; cited from earlier work
[3] = Oxaliplatin or cisplatin tissue uptake after intra-urinary bladder perfusion or IV bolus in rats; details: 6- or 24-hour continuous bladder perfusion; FIG. 10 and FIG. 11

| gemcitabine levels in bladder tissue ([1]; 6- or 24-hour continuous bladder perfusion (6.9 and 26.6 mg), sustained urine concentrations, FIG. 9) | concentration of gemcitabine in the bladder ([1]; 24 hours after a clinically relevant IV dose (5.0 mg bolus), compared with bladder perfusion, FIG. 9) | SMILES | prostate gemcitabine tissue concentrations ([1]; after bladder perfusion, compared with IV administration, FIG. 7) | efficacy in prostate cancer patients [2] | bladder concentrations [3] |
| --- | --- | --- | --- | --- | --- |
| at or exceed therapeutic concentrations | significantly lower concentration | Nc1ccn([C@@H]2O[C@H](CO)[C@@H](O)C2(F)F)c(=O)n1 [gemcitabine] | substantially higher than those observed after IV administration | limited efficacy | – |
| – | – | O=C1[O][Pt]2([NH][C@@H]3CCCC[C@H]3[NH]2)[O]C1=O [oxaliplatin] | – | – | achieving therapeutic bladder concentrations |
